From PubChem BioAssay (NCI)
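Protocol summary: plate cells (96-well), add compound at 5 concentrations, incubate 48 h, interpolate endpoints linearly. Abbreviation: GI50, concentration required for 50% inhibition of growth. TGI: total growth inhibition.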

Key:
Experiment in all cases: growth of human tumour cells (NCI), 48 h
[1] = tested on: SNB-19 CNS
[2] = tested on: SF-268 CNS
[3] = tested on: EKVX NSCLC
[4] = tested on: A498 renal
[5] = tested on: HCT-116 colon
[6] = tested on: IGROV1 ovarian
[7] = tested on: SW-620 colon
[8] = tested on: OVCAR-3 ovarian
[9] = tested on: NCI-H522 lung
[10] = tested on: MCF7 breast

| SMILES | TGI [1] [µM] | TGI [2] [µM] | TGI [3] [µM] | TGI [4] [µM] | TGI [5] [µM] | TGI [6] [µM] | TGI [7] [µM] | TGI [8] [µM] | TGI [9] [µM] | GI50 [1] [µM] | GI50 [8] [µM] | GI50 [2] [µM] | GI50 [3] [µM] | GI50 [4] [µM] | GI50 [5] [µM] | GI50 [6] [µM] | GI50 [9] [µM] | GI50 [7] [µM] | GI50 [10] [µM] | TGI [10] [µM] |
| --- | --- | --- | --- | --- | --- | --- | --- | --- | --- | --- | --- | --- | --- | --- | --- | --- | --- | --- | --- | --- |
| N#CCC(=O)N1CCCCCCC1 | > 100 | > 100 | > 100 | > 100 | > 100 | > 100 | 21.3 |  |  |  |  |  |  |  |  |  |  |  |  |  |
| O=c1oc2ccccc2c(O)c1C(C/C(CCN1CCCC1)=N\Nc1ccccc1)c1ccccc1 (centres undefined) | > 100 | > 100 | > 100 | > 100 | > 100 | > 100 | > 100 | > 100 | > 100 |  |  |  |  |  |  |  |  |  |  |  |
| O=C(CCCCC(=O)N/N=C\c1ccccc1O)N/N=C\c1ccccc1O | > 100 | > 100 | > 100 | > 100 | > 100 | > 100 |  | > 100 |  | 5.88 | 3.87 | 1.72 | 7.75 | > 100 | 3.69 | 3.49 |  |  |  |  |
| O=C(O)/C(=C\c1ccncc1)c1cccc2ccccc12 | > 100 | > 100 | > 100 |  | > 100 | > 100 | > 100 | > 100 | > 100 |  |  |  |  |  |  |  |  |  |  |  |
| NNC(=O)C(=O)N/N=C(\CCC(=O)Nc1ccc(Cl)cc1)Cc1nc2ccccc2s1 | > 100 | > 100 | > 100 | > 100 | > 100 | 51.3 | > 100 | > 100 | 40.8 |  |  |  |  |  |  |  |  |  |  |  |
| O=NN(CCCl)C(=O)NC1CCC(CC2CCC(NC(=O)N(CCCl)N=O)CC2)CC1 (centres undefined) | 49.1 | > 52.4 | > 100 | 93.9 | > 100 | > 67.8 | > 51.3 | > 67.4 | 48.3 |  |  |  |  |  |  |  |  |  |  |  |
| Cn1cc(C2=C(N3CCOCC3)C(=O)NC2=O)c2ccccc21 | > 25 | > 25 |  | > 25 | > 25 | > 25 | > 25 | > 25 | > 25 | > 25 | > 25 | > 25 |  | > 25 | > 25 | > 25 | > 25 | > 25 | > 25 | > 25 |
| O=C(O)Cn1cc([N+](=O)[O-])c(=O)c2ccccc21 | > 100 | > 100 |  | > 100 | > 100 | > 100 | > 100 | > 100 | > 100 |  |  |  |  |  |  |  |  |  |  | > 100 |
| O=C(CCc1ccc(O)cc1)N/N=C/c1cc(Br)ccc1O | > 100 | 24.4 |  | 49.6 | > 100 | 93.3 | > 100 | 23.6 | 18.1 | 6.51 | 4.03 | 2.23 |  | 9.81 | 4.34 | 6.23 | 3.73 | 3.83 | 3.31 | 90.2 |
| COC(=O)c1nn(C(=N)c2ccc(Cl)cc2)c2c1CCC2 | > 100 | > 100 |  | > 100 | > 100 | > 100 | > 100 |  | > 100 |  |  |  |  |  |  |  |  |  |  |  |
| CN1C/C(=C\C=C\c2ccccc2)C(=O)/C(=C/C=C/c2ccccc2)C1 | > 100 | > 100 | > 100 | > 100 | > 100 | > 100 | > 100 | > 100 | > 100 |  |  |  |  |  |  |  |  |  |  |  |
| CCN(CC)CC(=N)N(CC)c1ccccc1 | > 100 | > 100 | > 100 | > 100 | > 100 | > 100 | > 100 | > 100 | > 100 |  |  |  |  |  |  |  |  |  |  |  |
| COc1ccc(N2C(=O)C3c4[nH]c5ccccc5c4C4CCCCC4C3C2=O)cc1 (centres undefined) | > 100 | 26.4 | 37.7 | 54.4 | 22 | 64.3 | > 100 | > 100 | > 100 |  |  |  |  |  |  |  |  |  |  |  |
| [N-]=[N+]=C(C(=O)N1CCCC1=O)S(=O)(=O)c1ccccc1 | > 100 | > 100 | > 100 |  | > 100 | > 100 | > 100 | > 100 | > 100 |  |  |  |  |  |  |  |  |  |  | > 100 |
| CC(C)=CC(=O)Cc1nc2ccc([N+](=O)[O-])cc2[nH]c1=O | > 100 | > 100 | > 100 | > 100 | > 100 | > 100 | > 100 | > 100 | > 100 |  |  |  |  |  |  |  |  |  |  |  |
| C[C@@H](Nc1nc(Nc2ccc(F)c(Cl)c2)nc2ccccc12)C1CC1 | 22.1 | 26.8 | 12.4 |  | 3.2 | 17.7 | 13.9 | 12.7 | 19.5 | 4.44 | 3.21 | 6.43 | 2.72 |  | 1.49 | 3.06 | 4.32 | 3.14 | 2.84 | 13.3 |
| O=C(/C=C\c1cccc2ccccc12)c1cccc2ccccc12 | 23.7 | 22.1 | 27.6 | 31.7 | 13.4 | 25.9 | 10.6 | 25.3 | 16.1 |  | 12.5 | 4.74 |  |  | 3.36 |  | 4.46 | 2.7 |  |  |
| C[C@]12CCC(=O)C=C1CC[C@@H]1C2CC[C@]2(C)c3nn(-c4ccccc4)nc3CC12 (some centres undefined) | > 100 | > 100 | > 100 | > 100 | > 100 | > 100 | > 100 | > 100 |  |  |  |  |  |  |  |  |  |  |  |  |
| CC[C@H](C)C(=O)O[C@H]1C[C@H](O)C=C2C=C[C@H](C)[C@H](CC[C@@H](O)C[C@@H](O)CC(=O)O)[C@H]21 | > 100 | > 100 |  | > 100 | > 100 | > 100 | > 100 | > 100 | > 100 | > 100 | > 100 | > 100 |  | 11.6 | > 100 | > 100 | 63 | > 100 | > 100 | > 100 |
| COc1ccc2ccc3oc([N+](=O)[O-])cc3c2c1 | > 100 | 1.69 |  | 0.301 | 1.21 | 0.877 | 2.14 | 0.754 | 0.563 | 0.281 | 0.255 | 0.201 |  | 0.126 | 0.189 | 0.246 | 0.169 | 0.236 | 0.226 | 2.34 |
